Data reported in patent publication US6103888A, “Mammalian cationic proteins having lipopolysaccharide binding and anti-coagulant activity” (priority 1999, dated 2000).

Experiments:
RAW 264.7 cells [1] = experiment: LPS- or IFNγ-induced reactive nitrogen intermediate (RNI) production, Griess nitrite assay; assay type: cell-based, murine
Procedure: From the sequence of the CAP18 cDNA, it was apparent that the putative N-terminal peptide of CAP18 was in fact an internal fragment of the CAP18 protein. We therefore tried to reconfirm the original protein sequence. Neutrophil-derived heparin bound cationic proteins were prepared as described above and applied to a C18 reverse phase HPLC (FIG. 1). We sequenced the major peaks. Peaks at fractions 14.5 and 15.2 correspond to defensins MCP1 and MCP2 (Territo et al. (1989) J. Clin. Invest. 84:2017-2019), respectively. Fraction 25.8 is macrophage related protein 14 (MRP14) (Odink et al. (1987) Nature 330:80-82). The fraction at 20.3 minutes corresponds to a fragment of CAP18 of approximately 4-5 kD. […] The murine macrophage cell line RAW 264.7 (obtained from ATCC) and thioglycollate-elicited murine peritoneal exudate cells are used to produce RNI. Cells are cultured at 1×10^6 /ml. in RPMI-1640 +2.5% FCS in 24 well plates in the presence or absence of different concentrations of LPS or murine rlFNγ. After 24 hr. incubation at 37° C., the cell free supernatant is collected and tested for the presence of RNI. Accumulation of nitrite in the medium is measured by a calorimetric assay based on the Griess reaction (Green et al. (1982) Anal. Biochem. 126:11) using sodium nitrite as standards. Sample (50 μl) is mixed with 50 μl of Griess reagent (1% sulfanilamide, 0.1% naphthalene diamine dihydrochloride, 2.5% H3 PO4) and after 10 min. at room temperature absorbance is read at 570 nm.

RAW 264.7 cells [2] = experiment: Reversal of LPS-induced inhibition of cell proliferation; assay type: cell-based, murine; conditions: cultures containing 5 ng/ml of LPS
Procedure: When LPS is added to RAW 264.7 cells it causes a dose-dependent inhibition of proliferation with differentiation of the cells into a macrophasge phenotype.

E. coli O9:K39 K- strain = experiment: Antibacterial CFU assay

In the case of “RNIP: rabbit reactive nitrogen inhibitory protein, amino acids 135-171 of SEQ ID NO:4; purified from granulocytes (Tables 1-3) or synthetic (#197) (GLRKRLRKFRNKIKEKLKKIGQKIQGLLPKLAPRTDY)”, the “concentrations at which peptides are active in the bioassay” value (RAW 264.7 cells [1]; day-to-day variation in the bioassay) is reported as 10 to 50 nM, the “inhibition of LPS-induced RNI production (in words)” value (RAW 264.7 cells [1]; macrophages / RAW 264.7 cells) is reported as “active” and the “effect on LPS-induced inhibition of RAW 264.7 cell proliferation” value (RAW 264.7 cells [2]) is reported as “reverses the inhibition of proliferation”. For the same substance, the “IC50, anti-bacterial activity” value (E. coli O9:K39 K- strain) was 0.68 µg/mL and the IC50 (E. coli O9:K39 K- strain; read-out: IC50, anti-bacterial activity) was 110 nM.
